The values below come from publication PMC11219945, “Assessing genotoxic effects of chemotherapy agents by a robust in vitro assay based on mass spectrometric quantification of γ-H2AX in HepG2 cells” (Frontiers in Pharmacology, 2024).

The subject of data set [1] is γ-H2AX in HepG2 cells. The experiment in a line: γ-H2AX MS assay, dose-effect relationship in HepG2 cells. Particulars: for maximum γ-H2AX value within the selected concentration range: 24 h; for γ-H2AX MEC/MS (minimum effective concentration): 24 h exposure. The protocol:
Human hepatoblastoma cells (HepG2) were cultivated in DMEM medium under standard conditions (37°C in a 5% CO2 atmosphere). The culturing medium was added with 10% FBS, 100 U/mL penicillin and 100 μg/mL streptomycin.
In accordance to our previous study, cells were exposed to the chemotherapeutic agent by adding a proper volume of chemotherapeutic agent stock solution to the fresh medium without serum. Controls were treated with DMSO (0.1%) in medium. Independent biological experiments with three technical replicates were conducted.
The cells were then treated with different chemotherapy agents in serum-free medium. For a dose-effect relationship experiment, cells were exposed to each agent at either of three concentrations with a 10-fold increase for 24 h. For the time-effect relationship experiment of nine tested chemotherapy agents, cells were exposed to selected chemotherapy agents at 0.5, 1, 2, 4, 8, 12, and 24 h, with the concentration of 100 μM. Independent biological experiments with three technical replicates were performed.
(§1) The quantification of γ-H2AX was carried out according to the previous report ([Qu et al., 2021]). In short, the cell clumps were collected after a certain period of cell culture and histones were obtained by acid extraction. After nuclear isolation, histone extraction, trypsin digestion in the solution, and desalting, the peptide sample from the carboxy terminus of H2AX was analyzed. LC–MS/MS analysis was conducted using a QTRAP 5500 (AB Sciex, Framingham, United States) with an ACQUITY UPLC system (Waters Co., Manchester, United Kingdom). Chromatographic separation was carried out with an ACQUITY UPLC BEH C18 column (100 mm × 2.1 mm, 1.7 μm). The column temperature was maintained at 40°C. A 10 μL sample aliquot was injected for analysis. Mobile phases A and B were 0.1% FA in distilled H2O and acetonitrile, respectively. […] The eluent composition was maintained for 2 min, after which the system returned to 1% B and was re-equilibrated for 2 min. The eluates in the first 1 min were switched to waste to prevent contaminating the ion source. The electrospray ionization source was operated in positive mode using nitrogen as the nebulizing gas. All experiments were performed independently in at least triplicate.
To this end, we firstly examined the cytotoxicity of 34 chemotherapy agents, all of which were already well classified in terms of diverse characteristics. These tested chemotherapy agents were serially diluted for exposure to check the effects on cell viability.

On the set-up of data set [2]: method as in earlier work. Particulars: ref IARC; cited from earlier work.
Data set [3] relates to γ-H2AX in HepG2 cells. The experiment in a line: γ-H2AX time-effect relationship / DNA repair kinetics (k, t50) in HepG2 cells. The class given is cell-based, Human. Particulars: 100 μM, 0.5–8 h time-dependent kinetics. On the set-up: k (speed of γ-H2AX descending): unit not given here. How it is done:
The cells were then treated with different chemotherapy agents in serum-free medium. […] Independent biological experiments with three technical replicates were performed.
as §1, with “In” for “The quantification of γ-H2AX was carried out according to the previous report ([Qu et al., 2021]). In”
Here, we estimated k and t50 after exposure to nine representative chemotherapy agents based on the 0.5–8 h γ-H2AX time-dependent kinetics (Figure 5) and then obtained these parameters to describe each agent DSB repair capacity using the functions optim and optimize in R language.

The conditions of data set [4]: combination of in vitro mouse lymphoma, chromosomal aberration, and micronucleus tests; cited from earlier work.

Take `COc1cccc2c1C(=O)c1c(O)c3c(c(O)c1C2=O)C[C@@](O)(C(C)=O)C[C@@H]3O[C@H]1C[C@H](N)[C@H](O)[C@H](C)O1` [Daunorubicin]: in the data set with γ-H2AX in HepG2 cells [1] (human), the “maximum γ-H2AX value within the selected concentration range” value turned out to be 23. For the same molecule, the IARC classification group in data set [2] was 2B. In the data set on γ-H2AX in HepG2 cells [3], the “k (speed of γ-H2AX descending)” value is 0.139 and the “t50 (time required for γ-H2AX to drop to half of the maximum value)” value is reported as 3.344 h. Moreover, in data set [4], the “In vitro assays (genotoxicity)” value was “+”.

For `COc1cccc2c1C(=O)c1c(O)c3c(c(O)c1C2=O)C[C@@](O)(C(=O)CO)C[C@@H]3O[C@H]1C[C@H](N)[C@H](O)[C@H](C)O1` [Doxorubicin], the “maximum γ-H2AX value within the selected concentration range” value with γ-H2AX in HepG2 cells [1] (human) was 21. In data set [2], the IARC classification group was 2A. Besides, in the data set on γ-H2AX in HepG2 cells [3], the “k (speed of γ-H2AX descending)” value amounted to 0.088 and the “t50 (time required for γ-H2AX to drop to half of the maximum value)” value stood at 4.269 h. In addition, the “In vitro assays (genotoxicity)” value in data set [4] was “+”.

With Deoxyfluridine, the “value of γ-H2AX” value in the data set with γ-H2AX in HepG2 cells [1] (HepG2 cells, 100 μM of exposure concentration) turned out to be 8.4. Moreover, in the data set with γ-H2AX in HepG2 cells [1] (HepG2 cells), the “maximum γ-H2AX value within the selected concentration range” value is recorded as 8.4 and the “γ-H2AX MEC/MS (minimum effective concentration)” value is listed as “↑(10) µM”. For the same molecule, the “γ-H2AX MEC/MS (minimum effective concentration)” value with γ-H2AX in HepG2 cells [1] (HepG2 cells, listed as deoxyfluridine) is listed as 10 µM. In the data set on γ-H2AX in HepG2 cells [3], the “k (speed of γ-H2AX descending)” value stood at 4.157 and the “t50 (time required for γ-H2AX to drop to half of the maximum value)” value is recorded as 1.201 h. For the same molecule, the “In vitro assays (genotoxicity)” value in data set [4] is on record as “+”.

As for `O=c1[nH]c(=O)n(C2CCCO2)cc1F` (stereo not shown) [Tegafur], the “value of γ-H2AX” value with γ-H2AX in HepG2 cells [1] (human, 100 μM) was found to be 7.2. In addition, the “maximum γ-H2AX value within the selected concentration range” value in the data set with γ-H2AX in HepG2 cells [1] (human) is on record as 7.2. For the same molecule, in the data set on γ-H2AX in HepG2 cells [3], the “k (speed of γ-H2AX descending)” value stood at 3.015 and the “t50 (time required for γ-H2AX to drop to half of the maximum value)” value is listed as 1.442 h. Besides, the “In vitro assays (genotoxicity)” value in data set [4] is “+”.
